Legend:
[1] = test system: hyperlipoidemia model of Goldenhamsters (blood plasma TC, TG, HDL-C, LDL-C); experiment: Pharmacodynamic test group 3: effects on blood lipid levels of Goldenhamsters in a hyperlipoidemia model; type: in vivo; conditions: for HDL-C, after administration / LDL-C, after administration / TC, after administration / TG, after administration: 40 mg/kg intragastric, 1 week, high-lipid feed continued, asterisks = P vs before administration; for HDL-C, after administration / LDL-C, after administration / TC, after administration / TG, after administration / HDL-C, before administration / LDL-C, before administration / TC, before administration / TG, before administration: blood plasma, x±s; for effect on HDL-C, in comparison with the results before administration (in words) / effect on LDL-C, in comparison with the results before administration (in words) / effect on TC, in comparison with the results before administration (in words) / effect on TG, in comparison with the results before administration (in words): t test after vs before administration; for HDL-C, before administration / LDL-C, before administration / TC, before administration / TG, before administration: baseline of the group before administration, high-lipid feed 2 weeks, 6 animals
From the text: (§1) Animals: 120 male Goldenhamsters, aged 8 weeks, body weight 80-100 g, provided by Vital River Laboratories, Beijing.
Kits: The kits for total cholesterol (TC), triglyceride (TG), and high density lipoprotein cholesterol (HDL-C) were provided by SYSMEX, and the kits for low density lipoprotein cholesterol (LDL-C) were provided by Shanghai Kehua Bio-engineering Co., Ltd.
(§2) Apparatus: SYSMEX Automatic Biochemistry Analyzer, Bechman centrifuge, Setoris balance.
(§3) The animals were acclimatized and fed for 1 week, ad lib, light cycle was 10 h/14 h, and then feeds with high lipid content were fed to the animals (formulation: 0.3% cholesterol, 20% palm oil, and 79.7% basic feeds). The animals were fed for 2 weeks, and were fasted at 4:00 pm of the 14th day (fasted for 16 h). At the 15th day, the animals were anaesthetized with ethyl ether, weighted, and then 0.5 ml blood was collected from vena orbitalis posterior. The blood was anticoagulated with heparin, and was centrifugated at 5000 rpm for 10 min. The blood plasma was taken, and the levels of TC, TG, HDL-C, and LDL-C in blood plasma were determined using automatic biochemistry analyzer.
(§4) During the administration, feeds with high lipid content were continuously fed to the animals. The animals were fed for 1 week, and were fasted at 4:00 pm of the 7th day. At the 8th day, the animals were anaesthetized with ethyl ether, weighted, and then 0.5 ml blood was collected from vena orbitalis posterior. The blood was anticoagulated with heparin, and was centrifugated at 5000 rpm for 10 min. The blood plasma was taken, and the levels of TC, TG, HDL-C, and LDL-C in blood plasma were determined using automatic biochemistry analyzer.
(§5) The results were represented by x±s, and t test was employed for comparing the results obtained before and after administration.

[2] = Solubility in water (remark on the test drugs); type: physicochemical; conditions: formulated with 20% solutol
[3] = test system: hyperlipoidemia model of Goldenhamsters (blood plasma TC, HDL-C, LDL-C); experiment: Pharmacological test group 2: effects on blood lipid levels of Goldenhamsters in hyperlipoidemia model; type: in vivo; conditions: for effect on HDL-C, in comparison with the results before administration (in words) / effect on LDL-C, in comparison with the results before administration (in words) / effect on TC, in comparison with the results before administration (in words): t test after vs before administration; for HDL-C, before administration / LDL-C, before administration / TC, before administration: baseline of the group before administration, high-lipid feed 2 weeks, 6 animals
From the text: as §1
Kits: The kits for total cholesterol (TC) and high density lipoprotein cholesterol (HDL-C) were provided by SYSMEX, and the kits for low density lipoprotein cholesterol (LDL-C) were provided by Shanghai Kehua Bio-engineering Co., Ltd.
as §2
as §3, with “pm on” for “pm of”, “h). On” for “h). At”, “TC,” for “TC, TG,”
as §4, with “pm on” for “pm of”, “day. On” for “day. At”, “TC,” for “TC, TG,”
as §5

[4] = test system: hyperlipoidemia model of Goldenhamsters (blood plasma TC, TG, HDL-C, LDL-C); experiment: Pharmacological test group 1: effects on blood lipid levels of Goldenhamsters in a hyperlipoidemia model; type: in vivo; conditions: for HDL-C, after administration / LDL-C, after administration / TC, after administration / TG, after administration: 40 mg/kg intragastric, 1 week, high-lipid feed continued, asterisks = P vs before administration
From the text: Animals: 134 male Goldenhamsters, aged 8 weeks, body weight 80-100 g, provided by Vital River Laboratories, Beijing. […] Kits: The kits for total cholesterol (TC), triglyceride (TG), and high density lipoprotein cholesterol (HDL-C) were provided by SYSMEX, and the kits for low density lipoprotein cholesterol (LDL-C) were provided by Shanghai Kehua Bio-engineering Co., Ltd. Apparatus: SYSMEX Automatic Biochemistry Analyzer, Bechman centrifuge, Setoris balance. The animals were acclimatized and fed for 1 week, ad lib, light cycle was 10 h/14 h, and then feeds with high lipid content were fed to the animals (formulation: 0.3% cholesterol, 20% palm oil, and 79.7% basic feeds). The animals were fed for 10 days, and were fasted at 4:00 pm on the 10th day (fasted for 16 h). On the 11th day, the animals were anaesthetized with ethyl ether, weighted, and then 0.5 ml blood was collected from vena orbitalis posterior. The blood was anticoagulated with heparin, and was centrifugated at 5000 rpm for 10 min. The blood plasma was taken, and the levels of TC, TG, HDL-C, and LDL-C in blood plasma were determined using automatic biochemistry analyzer. The animals were acclimatized and fed for 1 week, ad lib, light cycle was 10 h/14 h, and then feeds with high lipid content were fed to the animals (formulation: 0.3% cholesterol, 20% palm oil, and 79.7% basic feeds). The animals were fed for 2 weeks, and were fasted at 4:00 pm on the […] (fasted for 16 h). On the 22nd day, the animals were anaesthetized with ethyl ether, weighted, and then 0.5 ml blood was collected from vena orbitalis posterior. The blood was anticoagulated with heparin, and was centrifugated at 5000 rpm for 10 min. The blood plasma was taken, and the levels of TC, TG, HDL-C, and LDL-C in blood plasma were determined using automatic biochemistry analyzer. […] During the administration, feeds with high lipid content were continuously fed to the animals. The animals were fed for 1 week, and were fasted at 4:00 pm on the 7th day. On the 8th day, the animals were anaesthetized with ethyl ether, weighted, and then 0.5 ml blood was collected from vena orbitalis posterior. The blood was anticoagulated with heparin, and was centrifugated at 5000 rpm for 10 min. The blood plasma was taken, and the levels of TC, TG, HDL-C, and LDL-C in blood plasma were determined using automatic biochemistry analyzer. The results were represented by x±s, and t test was employed for comparing the results obtained before and after administration.

[5] = background statement; cited from earlier work
[6] = 40 mg/kg intragastric, 1 week, high-lipid feed continued, blood plasma, x±s, asterisks = P vs before administration
[7] = 40 mg/kg, t test after vs before administration
[8] = baseline of the group before administration, high-lipid feed, blood plasma, x±s, 6 animals

| Compound | blood lipid-regulating effects (conclusion from table 4) ([1]; 40 mg/kg) | HDL-C, after administration [1] | LDL-C, after administration [1] | TC, after administration [1] | TG, after administration [1] | effect on HDL-C, in comparison with the results before administration (in words) ([1]; 40 mg/kg) | effect on LDL-C, in comparison with the results before administration (in words) ([1]; 40 mg/kg) | effect on TC, in comparison with the results before administration (in words) ([1]; 40 mg/kg) | effect on TG, in comparison with the results before administration (in words) ([1]; 40 mg/kg) | HDL-C, before administration [1] | LDL-C, before administration [1] | TC, before administration [1] | TG, before administration [1] | solubility in water [2] | LDL-C, after administration [3, 6] | effect on HDL-C, in comparison with the results before administration (in words) ([3]; 40 mg/kg) | HDL-C, after administration ([4]; blood plasma, x±s) | LDL-C, after administration ([4]; blood plasma, x±s) | TG, after administration ([4]; blood plasma, x±s) | effect on TG, in comparison with the results before administration (in words) [4, 7] | further results |
| --- | --- | --- | --- | --- | --- | --- | --- | --- | --- | --- | --- | --- | --- | --- | --- | --- | --- | --- | --- | --- | --- |
| CC(C)OC(=O)C(C)(C)Oc1ccc(C(F)(F)c2ccc(Cl)cc2)cc1 [HS003-004, isopropyl 2-(4-((4-chlorophenyl)difluoromethyl)phenoxy)-2-methylpropionate] | excellent blood lipid-regulating effects | 3.16 ± 0.24 | 1.86 ± 0.78 | 9.49 ± 1.82 | 2.22 ± 1.61 | increases | significantly decreases | significantly decreases | significantly decreases | 2.54 ± 0.22 | 3.54 ± 0.71 | 12.68 ± 1.8 | 3.94 ± 1.07 | insoluble | 1.97 ± 0.66 | increases | 3.7 ± 0.31 | 1.27 ± 0.26 | 1.30 ± 0.23 | significantly decreases | therapeutic effect compared with fenofibrate (conclusion from table 4) ([1]; 40 mg/kg, fenofibrate 40 mg/kg): outstanding therapeutic effects, and are superior to fenofibrate; blood lipid-regulating effects (conclusion from table 3) ([3]; 40 mg/kg): excellent blood lipid-regulating effects; HDL-C, after administration [3, 6]: 1.83 ± 0.18; TC, after administration [3, 6]: 9.86 ± 0.83; therapeutic effect compared with fenofibrate (conclusion from table 3) ([3]; 40 mg/kg, fenofibrate 40 mg/kg): outstanding therapeutic effects, and are superior to fenofibrate; effect on LDL-C, in comparison with the results before administration (in words) ([3]; 40 mg/kg): significantly decreases; effect on TC, in comparison with the results before administration (in words) ([3]; 40 mg/kg): significantly decreases; HDL-C, before administration ([3]; blood plasma, x±s): 1.61 ± 0.21; LDL-C, before administration ([3]; blood plasma, x±s): 3.26 ± 1.58; TC, before administration ([3]; blood plasma, x±s): 13.82 ± 2.69; regulating effects on the levels of blood lipid (conclusion from table 2) ([4]; 40 mg/kg): tend to the effects of significantly decreasing TG, TC, and LDL-C; TC, after administration ([4]; blood plasma, x±s): 9.16 ± 1.22; effect on HDL-C, in comparison with the results before administration (in words) [4, 7]: increases; effect on TC, in comparison with the results before administration (in words) [4, 7]: significantly decreases |
| CC(C)OC(=O)C(C)(C)Oc1ccc(C(F)(F)c2ccccc2)cc1 [HS003-008, Isopropyl 2-(4-(phenyldifluoromethyl)phenoxy)-2-methylpropionate] | excellent blood lipid-regulating effects | 3.4 ± 0.11 | 2.11 ± 0.89 | 10.84 ± 1.83 | 2.49 ± 0.99 | increase | significantly decrease | significantly decrease | significantly decrease | 2.86 ± 0.14 | 3.18 ± 0.81 | 12.85 ± 2 | 3.93 ± 1.09 | insoluble |  |  | 3.46 ± 0.26 | 1.0 ± 0.45 | 1.22 ± 0.84 | significantly decreases | regulating effects on the levels of blood lipid (conclusion from table 2) ([4]; 40 mg/kg): tend to the effects of significantly decreasing TG, TC, and LDL-C; TC, after administration ([4]; blood plasma, x±s): 9.85 ± 1.48; effect on LDL-C, in comparison with the results before administration (in words) [4, 7]: significantly decreases |
| fenofibrate [reference compound] |  |  |  |  |  |  |  |  |  |  |  |  |  |  | 2.45 ± 0.8 | increases | 4.11 ± 0.15 | 1.15 ± 0.3 | 1.13 ± 0.47 | significantly decreases | effect on LDL-C, in comparison with the results before administration (in words) ([3]; 40 mg/kg): significantly decrease; effect on TC, in comparison with the results before administration (in words) ([3]; 40 mg/kg): significantly decrease; HDL-C, before administration ([3]; blood plasma, x±s): 1.46 ± 0.29; LDL-C, before administration ([3]; blood plasma, x±s): 4.24 ± 1.51; TC, before administration ([3]; blood plasma, x±s): 13.74 ± 2.71; adverse effects to gastrointestinal tract [5]: significant adverse effects to gastrointestinal tract; effect on HDL-C, in comparison with the results before administration (in words) [4, 7]: increases; HDL-C, before administration [4, 8]: 3.16 ± 0.24; LDL-C, before administration [4, 8]: 1.35 ± 0.25; TG, before administration [4, 8]: 2.39 ± 1 |

Source: US9487470B2, “4-((substituted phenyl) difluoromethyl) phenoxy carboxylic acid derivative, and preparation method and uses thereof” (Zhejiang Hisun Pharmaceutical Co., Ltd., priority 2012, dated 2016)
